One data set concerns UTI MRSA. Kind of data set: Growth and viability of UTI MRSA in dampening metabolites. Type of data set: cell-based, Staphylococcus aureus. The protocol:
(§1) 478 Supplementary Figure 20. Growth of M. morganii, P. stuartii and UTI MRSA incubated in
(§2) 479 dampening metabolites. M. morganii TA43 (A,D,G), P. stuartii BE2467(B,E,H), UTI MRSA
(§3) 480 (C,F,I) were incubated in urease dampening metabolites to assess impact on growth. Bacteria
(§4) 481 were cultured for ~18 hours in LB (Mm and Ps) or BHI (MRSA) broth, then diluted 1:100 into
(§5) 482 fresh broth with (A-C) the highest concentrations of dampening metabolites assessed for urease
(§6) 483 inhibition or (D-F) serial dilutions of D-imidazole lactate. Bacterial suspensions were incubated
(§7) 484 at 37 °C with double-orbital shaking, and OD600 was measured every 15 minutes for 18 hours.
(§8) 485 Error bars represent mean ± standard deviation (SD) from at least 3 technical replicates, and
(§9) 486 graphs are representative of 3 independent biologic experiments. (G-I) Viability of incubated in
(§10) 487 Mm, Ps or MRSA incubated in serial dilutions of D-imidazole lactate. Overnight cultures were
(§11) (1 picture or pasted object on this page, not shown here)
(§12) 488 subcultured to mid log phase, washed in potassium phosphate buffer, and diluted 1:10 in
(§13) 489 potassium phosphate buffer with and without D-imidazole lactate. Samples (n=3) were incubated
(§14) 490 at 37°C with aeration for one hour then plated and enumerated for colony forming units (CFU).

The next data set deals with P. stuartii BE2467. In words: Growth and viability of P. stuartii in dampening metabolites. Format: cell-based, Providencia stuartii. How it is done: as §1, §2, §3, §4, §5, §6, §7, §8, §9, §10, §11, §12, §13, §14
Data set [1] deals with P. mirabilis. In words: Growth and viability of P. mirabilis incubated in dampening metabolites. Format: cell-based, Proteus mirabilis. How it is done:
345 Supplementary Figure 5. Growth and viability of P. mirabilis incubated in dampening
346 metabolites. (A-B) P. mirabilis was cultured for ~18 hours in LB broth, then diluted 1:100 into
347 fresh LB broth with (A) the highest concentration of each dampening metabolites that was tested
348 for urease-dampening activity or (B) serial dilutions of D-imidazole lactate. Bacterial
349 suspensions were incubated at 37 °C with double-orbital shaking, and OD600 was measured
350 every 15 minutes for 18 hours. Representative growth curves (A-B) show means and standard
351 deviations from three technical replicates. (C-E) Viability of P. mirabilis incubated in serial
352 dilutions of D-imidazole lactate. Overnight cultures were subcultured to mid log phase, washed
353 in potassium phosphate buffer, and diluted 1:10 in either (C,D) potassium phosphate buffer or
354 human urine (E) with and without D-imidazole lactate. Samples were incubated at 37°C with
as §11

Details of data set [2]: method as in PMID 9792207. The settings on record: higher doses, four h post intraperitoneal administration; cited from earlier work.
The test system of data set [3] is P. mirabilis. Kind of data set: In vitro glass “bladder” model of catheter encrustation. Type of data set: cell-based, Proteus mirabilis. As to conditions: for crystalline biofilm formation / Magnesium and phosphorus precipitation on catheter segments (ICP-OES) / catheter biofilm biomass (crystal violet) vs untreated P. mirabilis: 24 h; for crystalline biofilm formation: alone: 1.25 mM AHA, 12.5 mM histamine, 12.5 mM 4-imidazole acetate; for P. mirabilis CFUs in effluent over time / urease-mediated pH increase: tested individually; for urease-mediated pH increase: dose response. How it is done: A Foley catheter is inserted aseptically into the vessel through an opening at the base, the balloon is inflated, and the catheter is attached to a catheter drainage bag (Fig. 7A). The “bladder” is supplied with sterile AUM at a physiologically relevant flow rate via peristaltic pump from a media reservoir, the “kidney” (Fig. 7A). An initial bacterial inoculum of 10^8 CFU of P. mirabilis was added to the AUM in the “bladder” inner chamber to model robust bacteriuria, followed by initiation of flow (Fig. 7B). The performance of urease-dampening metabolites was evaluated as a reduction in 1) effluent AUM pH over the 24 h study period, and 2) crystalline biofilm formation and ion precipitation on catheter segments 24 h post inoculation. Urease-dampening metabolites and AHA were introduced into the system by direct dissolution into the AUM reservoirs. For each study, both positive (untreated P. mirabilis) and negative (untreated P. mirabilis urease negative mutant) controls were included. Effluent urine samples were collected at 0, 3, 6, 9, 12 and 24 h post inoculation. This preclinical model of catheter encrustation was modified to assess whether prophylactic administration of urease-dampening metabolites increases efficacy of antimicrobials against catheter biofilms, as outlined in Fig. 9A. Each experiment was performed in triplicate. Full details of experimental set up, sample collection, and processing are provided below and in Supplementary Materials.
A previously described glass “bladder” model was used, in which a 500 mL water-jacketed glass vessel is maintained at 37 °C via a circulating water bath, a Foley catheter is inserted and inflated, and artificial urine medium (AUM) is supplied into the “bladder” at a constant flow rate (0.75-1.0 mL/min) through a peristaltic pump[55],[56]. For consistency with the in vitro urease activity assays and the physiologic range of urea in healthy human urine, AUM was supplemented with 500 mM urea[57]. Urease-dampening metabolites of interest were directly dissolved in AUM 500 mM urea, adjusted to a pH of 5.8, and filter sterilized via a 0.2μm filter. “Bladders” were inoculated with 10^8 CFUs of P. mirabilis. Samples were collected from the catheter port at 0, 3, 6, 9, 12, and 24 hours to monitor pH and bacterial CFUs. Catheters segments were processed for CFUs, crystal violet staining of biofilm biomass, and ion composition at 24 h. Full details are provided in the Supplementary Methods.
236 and the segments were air dried for 15 min. Catheter segments were stained with 1.0 ml 0.1%
237 crystal violet for 10 min, washed by gentle dunking in 1X phosphate-buffered saline (PBS) to
238 remove excess stain, and solubilized in a microcentrifuge tube containing 750μL of 1% SDS
239 95% ethanol and vortexed for 5 minutes. Crystal violet absorbance (OD570) was measured in a
240 BioTek Synergy H1 microplate reader and blanked using cell-free control wells for each biofilm
243 Catheter segment biofilm viability. Catheter segments were washed by gentle dunking in 1X
244 phosphate-buffered saline (PBS) to remove any remaining planktonic bacteria and residual AUM
245 from the catheter lumen. Catheter segments were then placed in a microcentrifuge tube
246 containing 1mL of 1X PBS and vortexed for 5 minutes to solubilize the biofilm. Samples
247 underwent serial 10-fold dilutions and were spiral plated (Eddy Jet 2; Neutec Group Inc.,
248 Farmingdale, NY) onto low-salt LB agar for enumeration of CFU using a ProtoCOL 3 automated
249 colony counter (Synbiosis).
251 Catheter segment elemental composition. Catheter segments were placed in a microcentrifuge

On the set-up of data set [4]: method as in PMID 9792207. As to conditions: intraperitoneal injections; cited from earlier work.
The next data set deals with isolated rabbit bladders. The settings on record: cited from earlier work.
The test system of the next data set is P. mirabilis urease. The settings on record: 104V0, 106V15, HU1069 compared with HI4320.
The mark [5] stands for this setting: incubation in potassium phosphate, CFU.
[6] abbreviates: alone: 5 mM AHA, 25 mM histamine, 25 mM 4-imidazole acetate.
The mark [7] stands for this setting: alone: 5 mM AHA, 25 mM histamine, 25 mM 4-imidazole acetate, nucleation point ~ pH 8.

Each structure is given as a SMILES string. Structures can show the parent of a compound that is named as a salt.

Experimental for P. mirabilis urease: Urease activity was measured as described previously in triplicate with at least three biological replicates[21]. Briefly, bacteria were cultured for ~18 h in LB broth, concentrated to an OD600 of 4, washed once in saline, and diluted (1:10 for P. mirabilis and 1:50 for P. stuartii and M. morganii) into candidate dampening metabolites in potassium phosphate buffer or human urine pH7 and supplemented with 500 mM urea and 0.01% phenol red. Bacterial suspensions were distributed into a 96-well plate, incubated at 37 °C with double-orbital shaking in a Synergy H1 plate reader (BioTek), and absorbance (OD562) was measured every 60 seconds for 180 minutes. Isogenic urease mutants (Supplementary Data 1) served as negative controls for P. mirabilis and P. stuartii and a vehicle control served as a negative control for M. morganii.

Regarding `O.O=C(O)[C@H](O)Cc1cnc[nH]1` [D-imidazole lactate, D-imidazolelactic acid hydrate], the “growth of UTI MRSA” value in the data set with UTI MRSA (BHI broth) was “perturbed growth”. Also, the “antimicrobial activity against UTI MRSA” value in the data set with UTI MRSA (setting [5]) is reported as “less-pronounced antimicrobial activity”. Also, in the data set on UTI MRSA (one h incubation in potassium phosphate buffer), the “reduction in CFUs of UTI MRSA” value is reported as “one log reduction”. Further, the “growth of P. stuartii” value with P. stuartii BE2467 (LB broth) was “perturbed growth”. Also, the “antimicrobial activity against P. stuartii BE2467” value in the data set with P. stuartii BE2467 (setting [5]) is given as “robust antimicrobial activity”. Moreover, the “Growth of P. mirabilis in LB broth” value in the data set on P. mirabilis [1] (LB broth, 18 hours, OD600) was “perturbed”. Moreover, the figures for the “antimicrobial activity against P. mirabilis” value in the data set with P. mirabilis [1] (incubation in human urine) and with P. mirabilis [1] (incubation in potassium phosphate) were “less-pronounced activity” and “robust antimicrobial activity”, respectively.

Turning to `Cl.O=C(O)Cc1cnc[nH]1` [4-imidazole acetate, 2-(1H-Imidazol-5-yl)acetic acid hydrochloride], the effects in rats entry in data set [2] was “seizures”. Also, in the data set with P. mirabilis [3], the crystalline biofilm formation result was “no impact on crystalline biofilm formation”, the “P. mirabilis CFUs in effluent over time” value is “no meaningful differences between CFUs over time” and the “urease-mediated pH increase” value is “perturbed urease-mediated pH increase in a dose-dependent manner”. In the data set on P. mirabilis [3] (setting [6]), the “Magnesium and phosphorus precipitation on catheter segments (ICP-OES)” value is “reduced, although the reduction was not statistically significant”; the “catheter biofilm biomass (crystal violet) vs untreated P. mirabilis” value was “significantly reduced biofilm biomass”. Also, in the data set with P. mirabilis [3] (alone, lower concentrations), the “pH of AUM collected from “bladders” over 24 h” value (“pH of AUM collected … over 24 h” for short) was “failed to restrict pH”. In the data set on P. mirabilis [3] (setting [7]), the “pH of AUM collected … over 24 h” value was “never surpassed the nucleation point”. The effects in mice result in data set [4] was “sleep-like state and a decrease in body temperature”.

`NCCc1c[nH]cn1` [Histamine, histamine dihydrochloride]: in the data set on P. mirabilis [3], the crystalline biofilm formation entry is reported as “no impact on crystalline biofilm formation”, the “P. mirabilis CFUs in effluent over time” value is “no meaningful differences between CFUs over time” and the “urease-mediated pH increase” value is recorded as “perturbed urease-mediated pH increase in a dose-dependent manner”. In the data set with P. mirabilis [3] (setting [6]), the “Magnesium and phosphorus precipitation on catheter segments (ICP-OES)” value is on record as “reduced, although the reduction was not statistically significant”; the “catheter biofilm biomass (crystal violet) vs untreated P. mirabilis” value is reported as “significantly reduced biofilm biomass”. Moreover, the “pH of AUM collected … over 24 h” value in the data set on P. mirabilis [3] (alone, lower concentrations) is listed as “failed to restrict pH”. Further, the “pH of AUM collected … over 24 h” value in the data set with P. mirabilis [3] (setting [7]) is given as “never surpassed the nucleation point”. Also, the “response of isolated rabbit bladders” value in the data set with isolated rabbit bladders is “induce a contractile response”. Moreover, the “urease-dampening activity against P. mirabilis clinical isolates” value in the data set on P. mirabilis urease is on record as “slightly less potent”.

The values above are taken from publication PMC12583827, “Harnessing microbial-derived metabolites in the urinary tract to prevent infection induced catheter encrustation” (Nature Communications, 2025).
